# Like-named read-outs stand apart in the source and are kept apart here.
# Legend:
# UV-induced skin tumors = settings: for number of tumors per mouse: 26.5 weeks after first UV treatment, basal diet 0.72; for skin tumor incidence: UV-irradiated mice, 26.5 weeks after first UV exposure, unsupplemented 68%
# Experimental: Six-week-old specific-pathogen-free female BALB/cAnNTacfBR (H-2^d) mice were purchased from Taconic Laboratory Animals (Germantown, N.Y.) and quarantined from two weeks before treatment. Animals were housed in microisolators under barrier conditions with a 12:12-hour light-dark cycle at 20+/−2° C. (SD).
# (§1) Groups of 25 mice each received the basal diet which consisted of the American Institute of Nutrition 76A rodent diet containing 10% corn oil and 30 mg niacin per kilogram diet, supplemented with 0, 0.1, 0.5, or 1.0% niacin (Dyets Inc. Bethlehem, Pa.). All diets were pelleted (Dyets Inc.) without heat or steam and stored under refrigeration for less than 10 weeks. Animals were fed ad libitum and given fresh diet three times per week for three weeks before UV treatments began, and throughout the study. Niacin intakes were calculated from the diet consumed. Animals were supplied with sterilized water ad libitum.
# (§2) The mice were exposed to UV radiation after three weeks of oral niacin administration. The animals were shaved dorsally with animal clippers each week. The filter tops, food, and water bottles were removed from the microisolators while mice were exposed to UV radiation emitted by banks of six FS40 Westinghouse fluorescent sun lamps for 30 min per day, five days per week. This UV regimen continued for 22 weeks in the carcinogenesis experiments, and for 11 weeks in the passive transfer assay experiments. The cages were systemically rotated during the study to compensate for any differences in flux at different positions under the lamps. The FS40 lamps emit a continuous spectrum from 270 to 390 nm with peak emission at 313 nm. About 75% of the energy output is in the wavelength range of 280-340 nm with about 23% in the 340-390 nm range. The total UVB radiation dose was approximately 1.41×10^6 Jm^−2 in the carcinogenesis experiments, and about […] in the passive transfer experiments, as measured with a UVX Digital Radiometer with a UVX-31 sensor (Ultraviolet Products, San Gabriel, Calif.).
# (§3) Differences in primary tumor incidence between the experimental groups were analyzed by the Wilcoxon rank sum test. […] For the NAD assay, the Q test was first applied to the data to determine whether questionable values should be rejected. This test was conducted at the 95% confidence level. The data were then analyzed using the MIXED procedure in the statistical analysis program SAS 6.11. […] In this manner, it was possible to first account for differences and variability in duplicate or triplicate samples from the same mouse before the differences between each mouse in each group was compared. This procedure resulting in more precise group means than if each single value carried equal weight. Least-squares means for each group were calculated, and a multiple comparison between these means was made after applying a Tukey-Kramer adjustment for the p-values.
# Groups of 25 mice each were fed the AIN76A rodent diet containing 10% corn oil and 30 mg niacin per kilogram diet, supplemented with 0, 0.1, 0.5, or 1.0% niacin. After three weeks of this diet, dorsally shaved mice were exposed to UV radiation for 30 min per day, five days per week for 22 weeks.
# skin NAD = system: skin NAD
# Experimental: as §3
# UVM12 tumor cells = settings: 32 days after tumor challenge, 0% niacin 91.6, unirradiated control 21.9
# Experimental: as §2, §3
# [1] = for Body Weight: mean; for Food Consumed: mean (SD)
# Experimental: as §1
# Niacin ingestion was calculated from diet consumption recorded on 50% of the animals of each group.
# [2] = diet supplemented with 0.1% niacin
smiles,measurement,setting,value
O=C(O)c1cccnc1 [niacin],number of tumors per mouse,UV-induced skin tumors; [2],0.6%
same,skin tumor incidence,UV-induced skin tumors; [2],60%
same,number of tumors per mouse,UV-induced skin tumors; diet supplemented with 0.5% niacin,0.48%
same,skin tumor incidence,"UV-induced skin tumors; diet supplemented with 0.5% niacin, p=0.0257",48%
same,number of tumors per mouse,UV-induced skin tumors; diet supplemented with 1.0% niacin,0.4%
same,skin tumor incidence,"UV-induced skin tumors; diet supplemented with 1.0% niacin, p=0.0257",28%
same,skin NAD content vs UV-irradiated mice receiving no additional niacin,"skin NAD; 0.5% niacin supplementation, p<0.0001 dorsal skin, p=0.0114 ventral skin",significantly higher skin NAD content
same,skin NAD content vs UV-irradiated mice receiving no additional niacin,"skin NAD; 1.0% niacin supplementation, p=0.0025 dorsal skin, p=0.0017 ventral skin",significantly higher skin NAD content
same,mean tumor size,UVM12 tumor cells; recipients of splenocytes from UVB-irradiated donors on 0.1% niacin,79.8(+/−11.5) sq mm
same,mean tumor size,UVM12 tumor cells; recipients of splenocytes from UVB-irradiated donors on 0.5% niacin,41.9 (+/−11.7) sq mm
same,mean tumor size,UVM12 tumor cells; recipients of splenocytes from UVB-irradiated donors on 1.0% niacin,13.2(+/−4.1) sq mm
same,"body weights of UV-irradiated mice, with or without supplemental niacin","[1]; 0.1, 0.5 or 1.0% niacin diets vs basal diet",similar
same,Body Weight,[1]; +UV +0.1% niacin diet,18.2 grams
same,Food Consumed,[1]; +UV +0.1% niacin diet,2.47 (0.54) g/mouse/day
same,Body Weight,[1]; +UV +0.5% niacin diet,18.07 grams
same,Food Consumed,[1]; +UV +0.5% niacin diet,2.77 (0.66) g/mouse/day
same,Body Weight,[1]; +UV +1% niacin diet,18.55 grams
same,Food Consumed,[1]; +UV +1% niacin diet,2.88 (0.60) g/mouse/day

# — US6495537B1, “Method for inhibition of photocarcinogenesis or photoimmunosuppression using niacin” (University of Kentucky Research Foundation, priority 1998, dated 2002)
